For 14 molecules, IC50 and MIC results are on record in patent publication US20190330224A1, “ACC INHIBITORS AND USES THEREOF” (Gilead Apollo, LLC, priority 2015, published 2019).

Molecules are shown by their SMILES. ≈ marks a conversion by molar mass, not a printed value.

A word on the IC50: it is the concentration at which inhibition is half-maximal. Broadly, the MIC is the smallest concentration in the dilution series that meets the test's criterion for growth inhibition.

Assay [1] has as its target Human ACC2 (Homo sapiens, UniProt O00763). The experiment in a line: In vitro ACC2 inhibition assay (ADP-Glo), human ACC2. It is filed as biochemical. The settings on record: 5 nM ACC2, 20 μM ATP, 20 μM acetyl-CoA. On the technique in general: ADP-Glo first removes unused ATP, then detects ADP through luciferase.
The target of assay [2] is Fungal ACC2 (UniProt Q00955). The conditions noted are these: read-out: Fungal ACC2 (IC50, in vitro ACC2 inhibition).
Assay [3] relates to C. albicans ATCC 90028. The experiment in a line: Anti-Fungal Activity Assay (broth microtiter MIC), C. albicans. The conditions noted are these: Candida albicans, ATCC90028, 48 h, 3 replicates; MIC recorded at 48 h; read-out: MIC C. albicans ATCC 90028. It is filed as cell-based, Candida albicans. As for the experimental part:
(§1) Compounds of the present invention were evaluated in an Anti-Fungal Activity Assay. An exemplary procedure for the assay, which measures the susceptibility of various Candida species to anti-fungal compounds, follows. Compounds to be tested (including fluconazole and amphotericin B) were dissolved in DMSO to obtain a solution having a concentration of 1 mg/mL. […] All species were grown from frozen stock by directly plating on to freshly prepared Sabouraud Dextrose agar (BD, Difco) and incubated overnight in ambient air at 35° C. for 24 h. A direct suspension was prepared in RPMI 1640+MOPS (Lonza, Biowhittaker) by taking individual colonies from the overnight cultures using sterile swabs soaked in sterile saline. The concentration of the suspension was determined using pre-determined standard curves. […] Broth microtiter MIC challenge plates were prepared following CLSI guidelines (M27-A3, Vol. 28 No. 14). The original CLSI guidelines focused on reading Candida MICs after 48 h of incubation. As reading after only 24 h offers a clear advantage of patient care, QC limits are being established for all drugs at 24 h. That being said there are no known interpretive breakpoints for amphotericin B at 24 h and the current fluconazole interpretive breakpoints are based on a 48 h reading. The MIC breakpoints for the test compounds were recorded at 48 h, and for the soraphen the 24 h time-point was added. All MIC determinations were achieved by visually comparing the growth found in the antibiotic challenged wells to that of the growth control.

Assay [4] relates to C. krusei ATCC 6258. Description: Anti-Fungal Activity Assay (broth microtiter MIC), C. krusei. It is filed as cell-based, Candida krusei. The conditions noted are these: Pichia kudriavzevii, ATCC6258, 48 h, 3 replicates; MIC recorded at 48 h; read-out: MIC C. krusei ATCC 6258. As for the experimental part: as §1
For assay [5], the system named is C. parapsilosis ATCC 22019. The experiment in a line: Anti-Fungal Activity Assay (broth microtiter MIC), C. parapsilosis. The format is cell-based, Candida parapsilosis. The settings on record: Lodderomyces parapsilosis, ATCC22019, 48 h, 3 replicates; MIC recorded at 48 h; read-out: MIC C. parapsilosis ATCC 22019. Here is the method: as §1

Chain of Human ACC2 (O00763 whole entry): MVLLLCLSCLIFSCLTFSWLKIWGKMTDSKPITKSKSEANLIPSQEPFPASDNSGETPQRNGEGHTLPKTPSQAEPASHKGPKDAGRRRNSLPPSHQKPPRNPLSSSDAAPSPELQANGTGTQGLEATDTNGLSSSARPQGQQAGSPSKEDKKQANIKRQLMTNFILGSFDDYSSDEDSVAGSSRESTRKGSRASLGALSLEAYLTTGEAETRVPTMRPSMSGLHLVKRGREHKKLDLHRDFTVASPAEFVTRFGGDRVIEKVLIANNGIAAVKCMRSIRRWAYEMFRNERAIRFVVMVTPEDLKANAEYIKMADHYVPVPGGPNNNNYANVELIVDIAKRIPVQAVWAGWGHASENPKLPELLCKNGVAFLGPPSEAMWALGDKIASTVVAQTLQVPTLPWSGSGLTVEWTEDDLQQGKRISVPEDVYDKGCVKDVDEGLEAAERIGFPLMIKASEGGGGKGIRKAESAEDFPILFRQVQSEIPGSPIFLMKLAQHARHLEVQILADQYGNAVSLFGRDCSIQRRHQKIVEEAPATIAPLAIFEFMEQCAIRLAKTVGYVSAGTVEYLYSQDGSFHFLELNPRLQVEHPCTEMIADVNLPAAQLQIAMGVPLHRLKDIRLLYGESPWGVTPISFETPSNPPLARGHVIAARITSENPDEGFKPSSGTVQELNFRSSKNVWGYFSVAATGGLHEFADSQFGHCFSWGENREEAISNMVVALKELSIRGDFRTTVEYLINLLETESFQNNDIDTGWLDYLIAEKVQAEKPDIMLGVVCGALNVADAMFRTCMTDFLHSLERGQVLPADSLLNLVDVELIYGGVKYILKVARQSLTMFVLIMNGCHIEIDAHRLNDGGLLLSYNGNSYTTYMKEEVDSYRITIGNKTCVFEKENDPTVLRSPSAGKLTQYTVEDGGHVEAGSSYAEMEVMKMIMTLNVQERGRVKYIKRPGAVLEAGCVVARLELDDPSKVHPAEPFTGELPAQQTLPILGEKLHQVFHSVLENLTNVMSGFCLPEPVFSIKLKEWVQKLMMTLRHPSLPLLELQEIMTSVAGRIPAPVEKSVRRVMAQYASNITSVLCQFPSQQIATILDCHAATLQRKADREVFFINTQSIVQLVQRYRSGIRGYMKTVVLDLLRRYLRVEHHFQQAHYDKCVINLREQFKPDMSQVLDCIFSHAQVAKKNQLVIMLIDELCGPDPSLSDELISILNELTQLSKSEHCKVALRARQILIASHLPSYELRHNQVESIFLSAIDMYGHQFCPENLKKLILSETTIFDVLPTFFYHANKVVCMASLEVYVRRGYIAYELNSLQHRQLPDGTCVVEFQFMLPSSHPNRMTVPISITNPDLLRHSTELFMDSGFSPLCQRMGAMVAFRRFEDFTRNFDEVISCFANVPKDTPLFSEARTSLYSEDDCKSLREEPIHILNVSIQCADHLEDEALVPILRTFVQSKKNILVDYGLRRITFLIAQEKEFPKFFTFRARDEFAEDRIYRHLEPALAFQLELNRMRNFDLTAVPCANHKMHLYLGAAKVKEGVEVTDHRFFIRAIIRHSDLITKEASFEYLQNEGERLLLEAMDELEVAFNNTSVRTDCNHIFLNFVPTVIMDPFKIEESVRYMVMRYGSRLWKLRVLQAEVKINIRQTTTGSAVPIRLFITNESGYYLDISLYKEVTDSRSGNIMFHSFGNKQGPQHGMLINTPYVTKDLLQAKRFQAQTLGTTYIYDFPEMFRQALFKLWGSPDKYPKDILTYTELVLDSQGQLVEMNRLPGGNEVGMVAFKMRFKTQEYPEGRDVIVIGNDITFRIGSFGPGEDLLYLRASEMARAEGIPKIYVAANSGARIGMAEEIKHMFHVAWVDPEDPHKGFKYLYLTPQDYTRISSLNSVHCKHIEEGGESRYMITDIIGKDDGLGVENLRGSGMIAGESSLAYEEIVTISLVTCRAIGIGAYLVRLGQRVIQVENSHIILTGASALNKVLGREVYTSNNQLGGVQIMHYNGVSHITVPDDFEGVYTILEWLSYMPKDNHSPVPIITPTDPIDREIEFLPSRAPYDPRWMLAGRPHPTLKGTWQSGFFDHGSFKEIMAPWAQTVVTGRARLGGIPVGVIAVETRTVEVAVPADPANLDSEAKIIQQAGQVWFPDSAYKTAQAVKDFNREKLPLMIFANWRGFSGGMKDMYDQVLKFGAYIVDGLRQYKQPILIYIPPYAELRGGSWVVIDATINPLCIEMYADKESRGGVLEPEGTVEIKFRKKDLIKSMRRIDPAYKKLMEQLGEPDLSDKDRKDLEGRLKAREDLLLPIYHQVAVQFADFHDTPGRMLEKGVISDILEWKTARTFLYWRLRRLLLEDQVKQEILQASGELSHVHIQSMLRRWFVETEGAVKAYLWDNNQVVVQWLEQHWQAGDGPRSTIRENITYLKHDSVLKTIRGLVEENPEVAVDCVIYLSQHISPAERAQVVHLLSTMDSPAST
Chain of Fungal ACC2 (Q00955 whole entry): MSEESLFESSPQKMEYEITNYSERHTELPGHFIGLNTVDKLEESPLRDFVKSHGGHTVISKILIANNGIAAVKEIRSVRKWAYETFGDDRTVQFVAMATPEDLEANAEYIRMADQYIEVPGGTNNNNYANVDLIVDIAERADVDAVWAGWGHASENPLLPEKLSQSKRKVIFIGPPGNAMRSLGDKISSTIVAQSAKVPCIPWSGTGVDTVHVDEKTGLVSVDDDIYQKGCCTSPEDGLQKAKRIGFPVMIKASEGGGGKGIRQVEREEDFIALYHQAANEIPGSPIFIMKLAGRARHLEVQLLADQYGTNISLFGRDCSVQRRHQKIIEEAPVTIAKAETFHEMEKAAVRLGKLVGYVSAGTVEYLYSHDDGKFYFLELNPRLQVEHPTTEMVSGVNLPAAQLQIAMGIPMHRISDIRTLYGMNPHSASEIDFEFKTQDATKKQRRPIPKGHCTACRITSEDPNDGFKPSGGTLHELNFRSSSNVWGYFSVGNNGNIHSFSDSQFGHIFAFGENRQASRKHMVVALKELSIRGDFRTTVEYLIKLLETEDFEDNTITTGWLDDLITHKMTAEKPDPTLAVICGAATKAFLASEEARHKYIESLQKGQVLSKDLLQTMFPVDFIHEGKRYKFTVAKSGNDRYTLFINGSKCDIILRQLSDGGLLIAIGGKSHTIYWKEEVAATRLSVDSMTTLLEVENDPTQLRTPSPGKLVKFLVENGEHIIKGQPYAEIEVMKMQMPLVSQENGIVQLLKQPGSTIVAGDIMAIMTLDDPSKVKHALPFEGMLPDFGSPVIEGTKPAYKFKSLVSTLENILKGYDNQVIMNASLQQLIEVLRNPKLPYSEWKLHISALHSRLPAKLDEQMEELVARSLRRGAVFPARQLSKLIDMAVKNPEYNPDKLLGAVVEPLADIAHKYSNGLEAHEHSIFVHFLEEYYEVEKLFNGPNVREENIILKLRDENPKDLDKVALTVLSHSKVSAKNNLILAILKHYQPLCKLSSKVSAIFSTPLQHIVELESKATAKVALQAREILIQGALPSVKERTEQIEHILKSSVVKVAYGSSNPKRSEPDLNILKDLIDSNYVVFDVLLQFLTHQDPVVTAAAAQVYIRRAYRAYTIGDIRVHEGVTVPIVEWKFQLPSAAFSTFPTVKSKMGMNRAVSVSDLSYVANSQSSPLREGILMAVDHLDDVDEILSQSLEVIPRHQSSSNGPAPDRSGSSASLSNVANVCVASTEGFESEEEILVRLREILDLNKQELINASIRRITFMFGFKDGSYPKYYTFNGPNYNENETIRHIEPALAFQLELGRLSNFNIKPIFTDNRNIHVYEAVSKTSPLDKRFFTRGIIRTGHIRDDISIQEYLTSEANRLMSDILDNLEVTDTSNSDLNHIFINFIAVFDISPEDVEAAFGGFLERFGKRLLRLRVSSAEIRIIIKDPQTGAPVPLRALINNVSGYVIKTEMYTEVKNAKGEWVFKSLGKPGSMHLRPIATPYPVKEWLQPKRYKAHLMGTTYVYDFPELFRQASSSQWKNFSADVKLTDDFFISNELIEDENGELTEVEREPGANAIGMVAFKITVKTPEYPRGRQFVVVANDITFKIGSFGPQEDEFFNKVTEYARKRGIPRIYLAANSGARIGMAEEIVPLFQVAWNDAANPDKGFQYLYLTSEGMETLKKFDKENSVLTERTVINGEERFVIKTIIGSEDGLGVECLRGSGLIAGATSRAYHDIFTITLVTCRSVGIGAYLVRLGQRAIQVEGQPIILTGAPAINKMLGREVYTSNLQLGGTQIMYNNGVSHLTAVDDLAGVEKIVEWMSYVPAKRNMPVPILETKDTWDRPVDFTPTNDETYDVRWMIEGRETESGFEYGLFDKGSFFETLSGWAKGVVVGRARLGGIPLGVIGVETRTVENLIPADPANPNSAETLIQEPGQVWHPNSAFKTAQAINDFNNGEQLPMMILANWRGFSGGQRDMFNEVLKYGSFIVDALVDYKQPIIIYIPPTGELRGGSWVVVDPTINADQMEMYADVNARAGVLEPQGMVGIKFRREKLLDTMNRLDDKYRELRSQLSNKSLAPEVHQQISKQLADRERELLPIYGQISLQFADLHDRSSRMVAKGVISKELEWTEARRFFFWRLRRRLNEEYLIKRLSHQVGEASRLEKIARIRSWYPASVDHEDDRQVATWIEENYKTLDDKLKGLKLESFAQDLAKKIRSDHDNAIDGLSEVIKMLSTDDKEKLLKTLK

`COCCO[C@@H](Cn1c(=O)n([C@@]2(C)CCNC2=O)c(=O)c2c(C)c(-n3nccn3)sc21)c1cc(F)ccc1OC` [Compound I-141, 1-((R)-2-(5-fluoro-2-methoxyphenyl)-2-(2-methoxyethoxy)ethyl)-5-methyl-3-((S)-3-methyl-2-oxopyrrolidin-3-yl)-6-(2H-1,2,3-triazol-2-yl)thieno[2,3-d]pyrimidine-2,4(1H,3H)-dione]: the IC50 in assay [1] and in assay [2] was more than 1000 nM throughout.

Turning to `COc1ccccc1[C@H](Cn1c(=O)n([C@H]2CCCNC2=O)c(=O)c2c(C)c(-c3ncco3)sc21)OCCO` [Compound I-60, 1-((R)-2-(2-hydroxyethoxy)-2-(2-methoxyphenyl)ethyl)-5-methyl-6-(oxazol-2-yl)-3-((S)-2-oxopiperidin-3-yl)thieno[2,3-d]pyrimidine-2,4(1H,3H)-dione], the IC50 in assay [1] was 10 to 100 nM; in assay [2], 0.7 to 2 nM.

As for `COCCO[C@@H](Cn1c(=O)n(C2CCCN(C)C2=O)c(=O)c2c(C)c(-n3nccn3)sc21)c1cc(F)ccc1OC` (stereo partly drawn) [Compound I-14, 1-((R)-2-(5-fluoro-2-methoxyphenyl)-2-(2-methoxy-ethoxy)ethyl)-5-methyl-3-(1-methyl-2-oxopiperidin-3-yl)-6-(2H-1,2,3-triazol-2-yl)thieno[2,3-d]pyrimidine-2,4(1H,3H)-dione], the IC50 lay in the range of 10 to 100 nM in assay [1] and 2 to 10 nM in assay [2].

For `COc1ccc(F)cc1[C@H](Cn1c(=O)n([C@@H]2CCNC2=O)c(=O)c2c(C)c(-c3ncco3)sc21)O[C@H]1CC[C@@H](O)CC1` [Compound I-191, 1-((R)-2-(5-fluoro-2-methoxyphenyl)-2-(((1s, 4S)-4-hydroxycyclohexyl)oxy)ethyl)-5-methyl-6-(oxazol-2-yl)-3-((R)-2-oxopyrrolidin-3-yl)thieno[2,3-d]pyrimidine-2,4(1H,3H)-dione], the IC50 in assay [1] and in assay [2] was 0.7 to 2 nM in each case.

As to `COc1ccc(F)cc1[C@H](Cn1c(=O)n([C@H]2CCNC2=O)c(=O)c2c(C)c(-c3ncco3)sc21)O[C@H]1CC[C@@H](O)CC1` [Compound I-192, 1-((R)-2-(5-fluoro-2-methoxyphenyl)-2-(((1 s, 4S)4-hydroxycyclohexyl)oxy)ethyl)-5-methyl-6-(oxazol-2-yl)-3-((S)-2-oxopyrrolidin-3-yl)thieno[2,3-d]pyrimidine-2,4(1H,3H)-dione], the IC50 in assay [1] lay in the range of 2 to 10 nM; in assay [2] it was 0.7 to 2 nM.

The molecule `COc1ccc(F)cc1[C@H](Cn1c(=O)n([C@H]2CCCN(C)C2=O)c(=O)c2c(C)c(-c3ncco3)sc21)OCCO` [Compound I-63, 1-((R)-2-(5-fluoro-2-methoxyphenyl)-2-(2-hydroxy-ethoxy)ethyl)-5-methyl-3-((S)-1-methyl-2-oxopiperidin-3-yl)-6-(oxazol-2-yl)thieno[2,3-d]pyrimidine-2,4(1H,3H)-dione] gave an IC50 in assay [1] of 10 to 100 nM. Besides, the MIC in assay [3], in assay [4] and in assay [5] was 2.1 to 4 µg/mL (≈ 3.67 to 6.99 µM) throughout.

Turning to `COc1ccc(F)cc1[C@H](Cn1c(=O)n([C@]2(C)CCC(=O)NC2)c(=O)c2c(C)c(-n3nccn3)sc21)OCCO` [Compound I-133, 1-((R)-2-(5-fluoro-2-methoxyphenyl)-2-(2-hydroxy-ethoxy)ethyl)-5-methyl-3-((R)-3-methyl-6-oxopiperidin-3-yl)-6-(2H-1,2,3-triazol-2-yl)thieno[2,3-d]pyrimidine-2,4(1H,3H)-dione], the IC50 in assay [1] lay in the range of 10 to 100 nM. Moreover, the MIC in assay [3], in assay [4] and in assay [5] was 2.1 to 4 µg/mL (≈ 3.67 to 6.99 µM) throughout.

Molecule `COc1ccccc1[C@H](Cn1c(=O)n(C2CCN(C)C2=O)c(=O)c2c(C)c(-c3ncco3)sc21)OC1CCOCC1` (stereo partly drawn) [Compound I-57, 1-((R)-2-(2-methoxyphenyl)-2-((tetrahydro-2H-pyran-4-yl)oxy)ethyl)-5-methyl-3-(1-methyl-2-oxopyrrolidin-3-yl)-6-(oxazol-2-yl)thieno[2,3-d]pyrimidine-2,4(1H,3H)-dione] showed an IC50 in assay [1] of 10 to 100 nM. Moreover, the MIC in assay [3] lay in the range of 1.1 to 2 µg/mL (≈ 1.89 to 3.44 µM); in assay [4], 1.1 to 2 µg/mL (≈ 1.89 to 3.44 µM); in assay [5] it was 2.1 to 4 µg/mL (≈ 3.62 to 6.89 µM).

Regarding `CCN1CCC(n2c(=O)c3c(C)c(-n4nccn4)sc3n(C[C@H](OCCO)c3cc(F)ccc3OC)c2=O)C1=O` (stereo partly drawn) [Compound I-7, 3-(1-ethyl-2-oxopyrrolidin-3-yl)-1-((R)-2-(5-fluoro-2-methoxyphenyl)-2-(2-hydroxyethoxy)ethyl)-5-methyl-6-(2H-1,2,3-triazol-2-yl)thieno[2,3-d]pyrimidine-2,4(1H,3H)-dione], the IC50 in assay [1] lay in the range of 10 to 100 nM. Further, the MIC lay within 2.1 to 4 µg/mL (≈ 3.67 to 6.99 µM) in assay [3], 1.1 to 2 µg/mL (≈ 1.92 to 3.49 µM) in assay [4] and 2.1 to 4 µg/mL (≈ 3.67 to 6.99 µM) in assay [5].

`CCN1CCC(n2c(=O)c3c(C)c(-n4nccn4)sc3n(C[C@H](OCCOC)c3cc(F)ccc3OC)c2=O)C1=O` (stereo partly drawn) [Compound I-3, 3-(1-ethyl-2-oxopyrrolidin-3-yl)-1-((R)-2-(5-fluoro-2-methoxyphenyl)-2-(2-methoxyethoxy)ethyl)-5-methyl-6-(2H-1,2,3-triazol-2-yl)thieno[2,3-d]pyrimidine-2,4(1H,3H)-dione] had an IC50 in assay [1] of 10 to 100 nM. The MIC in assay [3], in assay [4] and in assay [5] was 2.1 to 4 µg/mL (≈ 3.58 to 6.82 µM) in each case.

In turn, `COc1ccc(F)cc1[C@H](Cn1c(=O)n(C2CCCN(C(C)C)C2=O)c(=O)c2c(C)c(-n3nccn3)sc21)OCCO` (stereo partly drawn) [Compound I-20, 1-((R)-2-(5-fluoro-2-methoxyphenyl)-2-(2-hydroxy-ethoxy)ethyl)-3-(1-isopropyl-2-oxopiperidin-3-yl)-5-methyl-6-(2H-1,2,3-triazol-2-yl)thieno[2,3-d]pyrimidine-2,4(1H,3H)-dione] showed an IC50 in assay [1] of 10 to 100 nM. Further, the MIC in assay [3], in assay [4] and in assay [5] was 2.1 to 4 µg/mL (≈ 3.5 to 6.66 µM) in each case.

Molecule `COc1ccccc1[C@H](Cn1c(=O)n(C2CCNC2=O)c(=O)c2c(C)c(-c3ncco3)sc21)OC1CCOCC1` (stereo partly drawn) [Compound I-56, 1-((R)-2-(2-methoxyphenyl)-2-((tetrahydro-2H-pyran-4-yl)oxy)ethyl)-5-methyl-6-(oxazol-2-yl)-3-(2-oxopyrrolidin-3-yl)thieno[2,3-d]pyrimidine-2,4(1H,3H)-dione] gave an IC50 in assay [1] of 2 to 10 nM. In addition, the MIC in assay [3], in assay [4] and in assay [5] was 2.1 to 4 µg/mL (≈ 3.71 to 7.06 µM) in each case.

Consider `COc1ccc(F)cc1[C@H](Cn1c(=O)n([C@@H]2CCCNC2=O)c(=O)c2c(C)c(-c3ncco3)sc21)OCCO` [Compound I-64, 1-((R)-2-(5-fluoro-2-methoxyphenyl)-2-(2-hydroxy-ethoxy)ethyl)-5-methyl-6-(oxazol-2-yl)-3-((R)-2-oxopiperidin-3-yl)thieno[2,3-d]pyrimidine-2,4(1H,3H)-dione], for which the IC50 in assay [1] was in the range of 10 to 100 nM. In addition, the MIC in assay [3], in assay [4] and in assay [5] was 2.1 to 4 µg/mL (≈ 3.76 to 7.16 µM) throughout.

`CCN1CCCC(n2c(=O)c3c(C)c(-n4nccn4)sc3n(C[C@H](OCCO)c3cc(F)ccc3OC)c2=O)C1=O` (stereo partly drawn) [Compound I-19, 3-(1-ethyl-2-oxopiperidin-3-yl)-1-((R)-2-(5-fluoro-2-methoxyphenyl)-2-(2-hydroxyethoxy)ethyl)-5-methyl-6-(2H-1,2,3-triazol-2-yl)thieno[2,3-d]pyrimidine-2,4(1H,3H)-dione]: the IC50 in assay [1] is 10 to 100 nM. Also, the MIC in assay [3], in assay [4] and in assay [5] was 2.1 to 4 µg/mL (≈ 3.58 to 6.82 µM) throughout.
